Test system: 171881-019-R-J1-PDC tumor spheroid viability
Assay: Anticancer human tumor 171881-019-R-J1-PDC patient-derived invasive breast carcinoma cell line growth inhibition [PI3K]
Details: spheroids with HUVEC and MSC; for IC50: curve of first compound; for viability, T/C: stronger effect = lower value; active = viability on the fitted dose curve at most 10% of control; inactive = the rest
Description: Combinatorial screen of targeted agents with the PI3K inhibitors inavolisib, alpelisib, duvelisib, and copanlisib in multi-cell type tumor spheroids
A high-throughput screen of multi-cell type tumor spheroids was designed to identify active combinations of targeted small molecules and PI3K pathway inhibitors. Complex spheroids include a stromal component modeled by human endothelial cells (HUVEC) and fibroblasts modeled by human mesenchymal stem cells (MSCs). The concentration ranges selected for each drug and investigational agent were based upon clinically achievable concentrations if the clinical Cmax of the agent was known.
Compounds. The drugs and investigational agents: inavolisib (NSC800729), alpelisib (NSC765974), duvelisib (NSC772469), copanlisib (NSC816437), ipatasertib (NSC767898), afuresertib (NSC778305), talazoparib (NSC767125), sapanisertib (NSC764658), selumetinib (NSC741078), tovorafenib (DAY101, NSC766906), vemurafenib (NSC761431), ravoxertinib (NSC781343), sotorasib (NSC818433), MRTX1133 (NSC 836407), abemaciclib (NSC 768073), palbociclib (NSC758247), venetoclax (NSC 766270), SY5609 (NSC837396), enzalutamide (NSC755605), and darolutamide (NSC825331), were obtained from the National Cancer Institute (NCI) Developmental Therapeutics Program Chemical Repository. The FDA-approved anticancer drug set is available from the NCI Developmental Therapeutics Program. […] The stock solutions were prepared in dimethyl sulfoxide (DMSO, Sigma-Aldrich, St. Louis, MO, cat. D2650) at 800-fold the tested concentration and stored at -70 degrees C prior to their use. All drugs and investigational agents were tested over a range starting from a high concentration at or near the clinical Cmax and decreasing in half-log increments. If the clinical Cmax for an agent had not been determined, the highest concentration tested was 10 microM.
Cell Culture. All cells were maintained in an incubator at 37 degrees C and 5% CO2 with 95% humidity. The PDC lines were cultured according to standard operating procedures established by the NCI PDMR (https://pdmr.cancer.gov/sops/default.htm). All PDCs were thawed and cultured in Matrigel-coated flasks prepared with a working solution of 1X Ham's F-12 nutrient mix, without supplementation (Invitrogen, Waltham, MA, cat. 11765054), 100 U/mL penicillin-streptomycin (Invitrogen, cat. 15140122), and 2.5% Matrigel (Corning Inc., Corning, NY, cat. 354248) for the first three passages. The 354836-022-R-J1-PDC, 475296-252-R-J1-PDC, and 997726-040-R-J2-PDC lines were cultured in 6A media, which includes advanced DMEM/F-12 (Thermo Fisher Scientific, cat. 12634028), 10 mM HEPES (Thermo Fisher Scientific, cat. 15630080), 1X GlutaMAX supplement (Thermo Fisher Scientific, cat. 35050061), 0.1 mg/mL primocin (InvivoGen, San Diego, CA, cat. ant-pm-2), 10% defined fetal bovine serum, heat inactivated (HyClone Laboratories Inc., Logan, UT, cat. SH30070.03HI), 50% L-WRN conditioned media (ATCC, cat. CRL-3276), 1.25 mM N-Acetyl-L-cysteine (Sigma-Aldrich, cat. A9165), 10 mM nicotinamide (Sigma-Aldrich, cat. N0636), 1X B-27 supplement (Thermo Fisher Scientific, cat. 17504044), 1X N-2 supplement (Thermo Fisher Scientific, cat. 17502048), and 10 microM Y-27632 dihydrochloride (Tocris Bioscience, Bristol, United Kingdom, cat. 1254). The 624824-186-R-J2-PDC line was cultured in 6C/Colon 1B media, which includes all 6A media components plus 50 ng/mL human EGF recombinant protein (Thermo Fisher Scientific, cat. PHG0311). […]
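Also: spheroids exposed to compound for 7 days before viability read.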
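For viability, T/C in this document: 100% = DMSO vehicle-treated spheroids.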

CC(=O)c1c(C)c2cnc(Nc3ccc(N4CCNCC4)cn3)nc2n(C2CCCC2)c1=O + CC(Nc1ccc2c(c1)OCCn1cc(N3C(=O)OCC3C(F)F)nc1-2)C(N)=O
< 0.000316 µM: IC50 (second compound 0.1 µM) | IC50 (second compound 0.316 µM) | IC50 (second compound 1 µM)
> 0.1 µM: IC50 (second compound 0.00316 µM) | IC50 (second compound 0.01 µM) | IC50 (second compound 0.0316 µM)
inactive: viability, T/C (second compound 0.00316 µM, first compound 0.000316 µM) 85.7% | viability, T/C (second compound 0.00316 µM, first compound 0.001 µM) 85.3% | viability, T/C (second compound 0.00316 µM, first compound 0.00316 µM) 94.5% | viability, T/C (second compound 0.00316 µM, first compound 0.01 µM) 95.2% | viability, T/C (second compound 0.00316 µM, first compound 0.0316 µM) 100% | viability, T/C (second compound 0.00316 µM, first compound 0.1 µM) 86.7% | viability, T/C (second compound 0.01 µM, first compound 0.000316 µM) 74.2% | viability, T/C (second compound 0.01 µM, first compound 0.001 µM) 82.3% | viability, T/C (second compound 0.01 µM, first compound 0.00316 µM) 78.5% | viability, T/C (second compound 0.01 µM, first compound 0.01 µM) 85.9% | viability, T/C (second compound 0.01 µM, first compound 0.0316 µM) 89.2% | viability, T/C (second compound 0.01 µM, first compound 0.1 µM) 73% | viability, T/C (second compound 0.0316 µM, first compound 0.000316 µM) 50.3% | viability, T/C (second compound 0.0316 µM, first compound 0.001 µM) 58.7% | viability, T/C (second compound 0.0316 µM, first compound 0.00316 µM) 53.9% | viability, T/C (second compound 0.0316 µM, first compound 0.01 µM) 49.1% | viability, T/C (second compound 0.0316 µM, first compound 0.0316 µM) 64.5% | viability, T/C (second compound 0.0316 µM, first compound 0.1 µM) 58.6% | viability, T/C (second compound 0.1 µM, first compound 0.000316 µM) 40.4% | viability, T/C (second compound 0.1 µM, first compound 0.001 µM) 42.6% | viability, T/C (second compound 0.1 µM, first compound 0.00316 µM) 42% | viability, T/C (second compound 0.1 µM, first compound 0.01 µM) 44.3% | viability, T/C (second compound 0.1 µM, first compound 0.0316 µM) 47.7% | viability, T/C (second compound 0.1 µM, first compound 0.1 µM) 42.1% | viability, T/C (second compound 0.316 µM, first compound 0.000316 µM) 26.7% | viability, T/C (second compound 0.316 µM, first compound 0.001 µM) 27% | viability, T/C (second compound 0.316 µM, first compound 0.00316 µM) 28% | viability, T/C (second compound 0.316 µM, first compound 0.01 µM) 28% | viability, T/C (second compound 0.316 µM, first compound 0.0316 µM) 30.8% | viability, T/C (second compound 0.316 µM, first compound 0.1 µM) 29% | viability, T/C (second compound 1 µM, first compound 0.000316 µM) 20.4% | viability, T/C (second compound 1 µM, first compound 0.001 µM) 20.4% | viability, T/C (second compound 1 µM, first compound 0.00316 µM) 24.1% | viability, T/C (second compound 1 µM, first compound 0.01 µM) 24.2% | viability, T/C (second compound 1 µM, first compound 0.0316 µM) 27.8% | viability, T/C (second compound 1 µM, first compound 0.1 µM) 25.9%

From PubChem BioAssay AID1963986 (Molecular Pharmacology Branch, DTP, NCI, 2024)
